Data taken from patent publication US20170037028A1 (BAYER PHARMA AKTIENGESELLSCHAFT, priority 2013, published 2017).

Target: T1, GLUT1 (Homo sapiens, UniProt P11166)
T1 sequence (P11166 1-492): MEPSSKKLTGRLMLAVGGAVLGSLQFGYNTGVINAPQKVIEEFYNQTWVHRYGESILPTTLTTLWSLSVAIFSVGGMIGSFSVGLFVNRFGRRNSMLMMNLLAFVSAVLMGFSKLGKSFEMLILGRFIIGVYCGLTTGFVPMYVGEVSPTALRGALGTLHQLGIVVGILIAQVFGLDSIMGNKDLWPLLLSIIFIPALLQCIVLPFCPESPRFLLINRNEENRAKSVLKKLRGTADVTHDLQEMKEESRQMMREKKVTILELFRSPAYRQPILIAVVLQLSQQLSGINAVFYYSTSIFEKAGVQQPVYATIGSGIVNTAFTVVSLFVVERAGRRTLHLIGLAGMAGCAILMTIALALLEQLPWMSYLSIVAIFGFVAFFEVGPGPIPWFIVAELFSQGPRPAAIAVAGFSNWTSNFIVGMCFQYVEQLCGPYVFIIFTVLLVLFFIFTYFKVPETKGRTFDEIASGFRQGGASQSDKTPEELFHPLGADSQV
Assay: Indirect measurement of GLUT1 activity by quantification of intracellular ATP levels (glucose induced ATP increase)
Format: cell-based
Set-up: endogenous in cells; host or cells: DLD1 or CHO-K1
Settings: read-out: IC50 regarding glucose induced ATP increase (GLUT1 inhibition)
In short: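 Intracellular ATP was measured by CellTiter-Glo luminescence as an indirect readout of transport: glucose-driven for GLUT1, fructose-driven for GLUT2. DLD1 or CHO-K1 cells were used alongside an oxidative phosphorylation inhibitor. Beforehand, cells were held overnight in glucose-free 1% FCS medium to deplete ATP.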

| IC50 [nM] | Compound |
| --- | --- |
| 676 | Cc1nn(Cc2ccc(C(=O)N3CCC(O)CC3)cc2)c(C)c1NC(=O)c1cc(C(F)(F)F)nc2ccc(Br)cc12 [Example 1217] |
| 694 | Cc1nn(CCN2CCOCC2)c(C)c1NC(=O)c1cc(C(F)(F)F)nc2ccc(Br)cc12 [Example 1218] |
| 708 | Cc1nn(Cc2ccc(F)cc2)c(C(=O)NCCO)c1NC(=O)c1cc(C(F)(F)F)nc2ccc(Br)cc12 [Example 1219] |
| 723 | Cc1nn(CCN2CCCCC2)c(C)c1NC(=O)c1cc(C(F)(F)F)nc2ccc(Br)cc12 [Example 1220] |
| 749 | Cc1nn(Cc2ccc(C(=O)N(C)C)cn2)c(C)c1NC(=O)c1cc(C(F)(F)F)nc2ccc(Br)cc12 [Example 1221] |
| 883 | Cc1nn(CC2CCNCC2)c(C)c1NC(=O)c1cc(C(F)(F)F)nc2ccc(Br)cc12 [Example 1222] |
| 891 | Cc1nn(Cc2ccc(C(=O)NCC(N)=O)cc2)c(C)c1NC(=O)c1cc(C(F)(F)F)nc2ccc(Br)cc12 [Example 1223] |
| 912 | Cc1nn(Cc2ccc(C(=O)N(C)CCN(C)C)cc2)c(C)c1NC(=O)c1cc(C(F)(F)F)nc2ccc(Br)cc12 [Example 1224] |
| 914 | CCOC(=O)c1nn(Cc2ccc(F)cc2)c(C)c1NC(=O)c1cc(C(F)(F)F)nc2ccc(Br)cc12 [Example 1225] |
| 924 | Cc1ccc2nc(C)cc(C(=O)Nc3c(C)nn(C/C=C/c4ccccc4)c3C)c2c1 [Example 1226] |
| 962 | CCCCCN(CCO)C(=O)c1ccc(Cn2nc(C)c(NC(=O)c3cc(C(F)(F)F)nc4ccc(Br)cc34)c2C)cc1 [Example 1228] |
| 999 | COc1ccc(CNC(=O)c2ccc(Cn3nc(C)c(NC(=O)c4cc(C(F)(F)F)nc5ccc(Br)cc45)c3C)cc2)cc1 [Example 1229] |
| 1000 | Cc1nn(Cc2ccc(C(=O)NC(CO)CO)cn2)c(C)c1NC(=O)c1cc(C(F)(F)F)nc2ccc(Br)cc12 [Example 1230] |
| 1040 | CNC(=O)c1nn(Cc2ccc(F)cc2)c(C)c1NC(=O)c1cc(C(N)=O)nc2ccccc12 [Example 1231] |
| 1050 | COc1ccccc1Cn1nc(C)c(NC(=O)c2cc(C)nc3ccc(C)cc23)c1C [Example 1232] |
| 1110 | Cc1cc(C)n(CCn2nc(C)c(NC(=O)c3cc(C(F)(F)F)nc4ccc(Br)cc34)c2C)n1 [Example 1233] |
| 1180 | Cc1nn(Cc2ccc(C(=O)N3CCOCC3)cn2)c(C)c1NC(=O)c1cc(C(F)(F)F)nc2ccc(Br)cc12 [Example 1234] |
| 1280 | Cc1c(NC(=O)c2cc(C(F)(F)F)nc3ccc(Br)cc23)c(C(=O)NCCO)nn1Cc1ccc(F)cc1 [Example 1235] |
| 1290 | Cc1ccc2nc(C)cc(C(=O)Nc3c(C)nn(Cc4cccc(F)c4)c3C)c2c1 [Example 1236] |
| 1320 | Cc1cc(C(=O)Nc2c(C)nn(Cc3ccc(F)cc3)c2C)c2cc(C#N)ccc2n1 [Example 1237] |
| 1370 | Cc1nn(Cc2cc(F)ccc2F)c(C)c1NC(=O)c1cc(C(F)(F)F)nc2ccc(Br)cc12 [Example 1238] |
| 1470 | Cc1nn(Cc2ccc(C(=O)NCC3(CO)COC3)cn2)c(C)c1NC(=O)c1cc(C(F)(F)F)nc2ccc(Br)cc12 [Example 1239] |
| 1500 | Cc1nn(Cc2ccc(CC(=O)NCCN3CCOCC3)cc2)c(C)c1NC(=O)c1cc(C(F)(F)F)nc2ccc(Br)cc12 [Example 1240] |
| 1530 | Cc1nn(CC2CCNCC2)c(C)c1NC(=O)c1cc(C(N)=O)nc2ccccc12 [Example 1241] |
| 1560 | Cc1nn(Cc2ccc(F)cc2)c(C)c1NC(=O)c1cc(C(F)(F)F)nc2ccc(NC(=O)C(N)=O)cc12 [Example 1242] |
| 1590 | Cc1nn(Cc2ccc(C(F)(F)F)cc2)c(C)c1NC(=O)c1cc(C(F)(F)F)nc2c(Cl)cc(Cl)cc12 [Example 1243] |

| IC50 [nM] | Compound |
| --- | --- |
| 1590 | Cc1nn(Cc2cc(F)cc(F)c2)c(C)c1NC(=O)c1cc(C(F)(F)F)nc2c(Cl)cc(Cl)cc12 [Example 1244] |
| 1600 | COc1cc(C(=O)Nc2c(C)nn(Cc3ccc(F)cc3)c2C(=O)N(C)C)c2ccccc2n1 [Example 1245] |
| 1660 | Cc1nn(Cc2ccc(C(=O)NCCO)cn2)c(C)c1NC(=O)c1cc(C(N)=O)nc2ccc(F)cc12 [Example 1246] |
| 1670 | CNC(=O)N1CCC(Cn2nc(C)c(NC(=O)c3cc(C(N)=O)nc4ccccc34)c2C)CC1 [Example 1247] |
| 1670 | COc1cc(C(=O)Nc2c(C)nn(Cc3ncccc3C)c2C)c2ccccc2n1 [Example 1248] |
| 1670 | Cc1nn(Cc2ccc(F)cc2)c(C)c1NC(=O)c1c2c(nc3ccccc13)CCC2 [Example 1249] |
| 1670 | Cc1nn(Cc2ccc(F)cc2)c(C(=O)N(C)C)c1NC(=O)c1cc(C(N)=O)nc2ccccc12 [Example 1250] |
| 1870 | Cc1nn(Cc2ccc(C(=O)NCC3CCCCC3)cc2)c(C)c1NC(=O)c1cc(C(F)(F)F)nc2ccc(Br)cc12 [Example 1251] |
| 1870 | Cc1cnc2ccccc2c1C(=O)Nc1c(C)nn(Cc2ccc(F)cc2)c1C [Example 1252] |
| 1970 | CNC(=O)c1nn(Cc2ccc(F)cc2)c(C)c1NC(=O)c1cc(OC)nc2ccccc12 [Example 1253] |
| 1980 | Cc1nn(Cc2ccc(CC(=O)NCCN(C)C)cc2)c(C)c1NC(=O)c1cc(C(F)(F)F)nc2ccc(Br)cc12 [Example 1254] |
| 2010 | CCOC(=O)c1c(NC(=O)c2cc(C(F)(F)F)nc3ccc(Br)cc23)c(C)nn1Cc1ccc(F)cc1 [Example 1255] |
| 2040 | Cc1nn(Cc2cc(F)cc(F)c2)c(C)c1NC(=O)c1cc(C(F)(F)F)nc2ccc(Br)cc12 [Example 1256] |
| 2050 | Cc1nn(Cc2ccc(F)cc2)c(C)c1NC(=O)c1cc(C(F)(F)F)nc2ccc(NS(C)(=O)=O)cc12 [Example 1257] |
| 2060 | CNC(=O)c1c(NC(=O)c2cc(C(N)=O)nc3ccccc23)c(C)nn1Cc1ccc(F)cc1 [Example 1258] |
| 2100 | Cc1c(NC(=O)c2cc(C(F)(F)F)nc3ccc(Br)cc23)c(C(=O)N(C)C)nn1Cc1ccc(F)cc1 [Example 1259] |
| 2170 | Cc1nn(Cc2ccc(F)cc2)c(C)c1NC(=O)c1cc(O)nc2ccccc12 [Example 1260] |
| 2290 | Cc1ccc2nc(C)cc(C(=O)Nc3c(C)nn(Cc4ccccn4)c3C)c2c1 [Example 1261] |
| 2290 | Cc1nn(CC2CCOCC2)c(C)c1NC(=O)c1cc(C(F)(F)F)nc2cc(F)c(F)cc12 [Example 1262] |
| 2320 | Cc1nn(Cc2ccc(C(=O)NCC(O)CO)cn2)c(C)c1NC(=O)c1cc(C(F)(F)F)nc2ccc(Br)cc12 (stereo not shown) [Example 1263] |
| 2380 | Cc1nc2ccccc2c(C(=O)Nc2c(C)nn(Cc3ccc(F)cc3)c2C)c1C#N [Example 1264] |
| 2480 | COc1cc(C(=O)Nc2c(C(=O)N(C)C)nn(Cc3ccc(F)cc3)c2C)c2ccccc2n1 [Example 1265] |
| 2490 | Cc1nn(C[C@@H]2CCC(=O)N2)c(C)c1NC(=O)c1cc(C(F)(F)F)nc2ccc(Br)cc12 [Example 1266] |
| 2710 | Cc1nn(Cc2ccc(F)cc2)c(C)c1NC(=O)c1cc(C(F)(F)F)nc2ccc(C(=O)O)cc12 [Example 1267] |
| 2850 | Cc1nn(Cc2ccc(F)cc2)c(C)c1NC(=O)c1cc(C(F)(F)F)nc2c(C#N)cccc12 [Example 1268] |
| 2890 | COc1cc(C(=O)Nc2c(C)nn(Cc3ccc(C(F)(F)F)cc3)c2C)c2ccccc2n1 [Example 1269] |
